Counter-ions that a name gives are not always drawn.
What was measured:
Assay type in all cases: in vivo
[1] = test system: cutaneous reflex after stimulation (guinea-pig back); experiment: Local anesthetic activity, intradermal infiltration in the back of guinea-pig (Bulbring and Wayda); settings: drug concentration inhibiting 50% of the occurence of the cutaneous reflex, 95% c.l. in parentheses
[2] = test system: mouse; experiment: in vivo; settings: for LD50: mouse, i.v., administered as hydrochloride, observed for 24 hrs, 1440 min; for Therapeutic Index LD50/ED50: ratio of LD50 (mouse, i.v.) to ED50 (guinea pig local infiltration)
From the text: (§1) Toxicity study in mouse has been performed by intravenous administration.

[3] = in vivo; settings: in vivo, iv
From the text: as §1

| SMILES | LOCAL ANESTHETIC ACTIVITY ED50 (c.l. 95%) [1] | LD50 [2] [mmols/kg/iv] | Therapeutic Index LD50/ED50 [2] | also measured |
| --- | --- | --- | --- | --- |
| CC(COc1ccccc1)N[C@@H](CO)[C@@H](O)c1ccc(S(C)(=O)=O)cc1 (relative stereo) [Z. 1402, (1S,2S)-1-(4-methylsulfonylphenyl)-2-(1-methyl-2-phenoxyethylamino)-1,3-propanediol] | 0.075 (0.05-0.1) mM | 0.30 | 4 |  |
| CC(COc1ccccc1)N[C@@H](CO)[C@@H](O)c1ccc(S(C)(=O)=O)cc1 (relative stereo) [Z. 1403, (1S,2S)-1-(4-methylsulfonylphenyl)-2-(1-methyl-2-phenoxyethylamino)-1,3-propanediol] | 0.049 mM | 0.80 | 16 |  |
| CCN(CC)CC(=O)Nc1c(C)cccc1C [Lidocaine, reference compound] |  |  |  | LOCAL […] ED50 (c.l. 95%) [1]: 0.49 (0.34-0.71) mM |
| CCN(CC)CCOC(=O)c1ccc(N)cc1 [Procaine, reference compound] | 2.3 (1.7-3.1) mM |  |  |  |
| CS(=O)(=O)c1ccc([C@@H](O)[C@@H](CO)NCCC(c2ccccc2)c2ccccc2)cc1 [Z. 1395, (1R,2R)-1-(4-methylsulfonylphenyl)-2-(3,3-diphenylpropylamino)-1,3-propanediol maleate acid] | 0.73 (0.57-0.94) mM |  |  |  |
| CS(=O)(=O)c1ccc([C@H](O)[C@H](CO)NCCC(c2ccccc2)c2ccccc2)cc1 [Z. 1396] | 0.36 (0.21-0.60) mM |  |  | selectivity ratio ([3]; ratio of LD50 (mouse, i.v.) to ED50 (guinea pig local infiltration), read-out: Therapeutic Index LD50/ED50): 0.5; LD50 at 24 h ([3]; mouse, administered as hydrochloride, observed for 24 hrs): 160 µmol/kg |

Source: patent publication US4632940A, “N-substituted 1-(4'-alkylsulfonylphenyl)-2-amino-1,3-propanediols, pharmaceutical compositions containing them, having local anesthetic activity” (Zambon S.p.A., priority 1983, dated 1986)
